Calls of active or inactive are those of the source.
Tests used:
[1] = target: T1, Streptokinase A (Streptococcus pyogenes serotype M1, UniProt P10520); assay: viability-normalized secreted streptokinase activity reduction – plasminogen activation absorbance, OD405, dose response (AID 1914); assay type: functional, Streptococcus pyogenes M1 GAS;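 note: secreted streptokinase activity via plasminogen activation per viability signal from cell pellet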
T1 sequence (P10520 whole entry): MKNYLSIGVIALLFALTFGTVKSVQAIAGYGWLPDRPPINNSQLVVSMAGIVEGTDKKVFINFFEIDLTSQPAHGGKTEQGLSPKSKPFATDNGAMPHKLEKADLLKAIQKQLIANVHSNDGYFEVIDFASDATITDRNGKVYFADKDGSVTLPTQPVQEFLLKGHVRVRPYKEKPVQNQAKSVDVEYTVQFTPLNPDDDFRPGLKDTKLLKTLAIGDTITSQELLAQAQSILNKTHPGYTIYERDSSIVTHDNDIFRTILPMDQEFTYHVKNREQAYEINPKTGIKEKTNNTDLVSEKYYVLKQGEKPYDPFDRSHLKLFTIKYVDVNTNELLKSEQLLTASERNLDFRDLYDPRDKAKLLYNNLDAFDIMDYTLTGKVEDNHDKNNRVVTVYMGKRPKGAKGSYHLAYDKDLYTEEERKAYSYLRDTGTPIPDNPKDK

[2] = cells; assay type: functional, cell-based
[3] = target: Serine/threonine-protein phosphatase (Candida dubliniensis (strain CD36 / CBS 7987 / NCPF 3949 / NRRLY-17841) (Yeast), UniProt B9W6M3); assay: blockers of CaCl2-induced CDRE-lacZ signaling – S. cerevisiae, luminescence, secondary, dose response (AID 2388); assay type: functional, cell-based;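 note: yeast reporter cells carrying a calcineurin-responsive lacZ construct stimulated with calcium chloride; luminescent beta-galactosidase reporter signal in whole cells rather than isolated phosphatase activity; potency for inhibition where a drop in reporter signal means calcineurin blockade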
[4] = target: ATP-dependent molecular chaperone HSP82 (Candida albicans (strain WO-1) (Yeast), UniProt C4YTQ8); assay: steroid-induced GRE reporter decrease in yeast – S. cerevisiae, luminescence, Hsp90 inhibitor project, dose response (AID 2400); assay type: functional, cell-based;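 note: beta-galactosidase luminescence from glucocorticoid response element reporter as proxy for Hsp90 function; inhibitor potency where signal loss means Hsp90 inhibition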
[5] = target: Megakaryocyte-associated tyrosine-protein kinase (Homo sapiens, UniProt P42679); assay type: functional;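 note: affinity measured as one member of a kinase panel (Navigating the Kinome) against MATK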
[6] = target: Phosphorylase b kinase gamma catalytic chain, liver/testis isoform (Homo sapiens, UniProt P15735); assay type: functional;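 note: PHKG2 measured as one member of a kinome-wide kinase panel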
[7] = target: Serine/threonine-protein kinase PLK4 (Homo sapiens, UniProt O00444); assay type: functional;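 note: PLK4 measured as one member of a kinome-wide kinase profiling panel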
[8] = target: Calcium/calmodulin-dependent protein kinase type II subunit gamma (Homo sapiens, UniProt Q13555); assay type: functional
[9] = target: Serine/threonine-protein kinase Chk2 (Homo sapiens, UniProt O96017); assay type: functional;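 note: CHEK2 entry within a kinome-wide screening panel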
[10] = target: Cyclin-dependent kinase 2 (Homo sapiens, UniProt P24941); assay type: functional;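 note: CDK2 measured as one member of a broad kinome profiling panel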
[11] = target: SRSF protein kinase 1 (Homo sapiens, UniProt Q96SB4); assay type: functional;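 note: measured as one member of a kinome-wide kinase profiling panel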
[12] = target: Casein kinase II subunit alpha (Homo sapiens, UniProt P68400); assay type: functional
[13] = target: Serine/threonine-protein kinase PAK 1 (Homo sapiens, UniProt Q13153); assay type: functional
[14] = target: Insulin receptor (Homo sapiens, UniProt P06213); assay type: functional;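 note: insulin receptor kinase tested as one member of a kinome-wide kinase panel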
[15] = target: Mitogen-activated protein kinase 13 (Homo sapiens, UniProt O15264); assay type: functional
[16] = target: Mitogen-activated protein kinase kinase kinase 20 (Homo sapiens, UniProt Q9NYL2); assay type: functional
[17] = target: Non-receptor tyrosine-protein kinase TYK2 (Homo sapiens, UniProt P29597); assay type: functional
[18] = target: MAP kinase-interacting serine/threonine-protein kinase 2 (Homo sapiens, UniProt Q9HBH9); assay type: functional
[19] = target: Cyclin-dependent kinase 5 (Homo sapiens, UniProt Q00535); assay type: functional;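 note: CDK5 measured as one member of a kinase profiling panel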
[20] = target: Serine/threonine-protein kinase Nek4 (Homo sapiens, UniProt P51957); assay type: functional
[21] = target: Protein kinase C iota type (Homo sapiens, UniProt P41743); assay type: functional;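 note: measured within a kinome-wide kinase panel, PRKCI as panel member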
[22] = target: T2, Interleukin-1 receptor-associated kinase 4 (Homo sapiens, UniProt Q9NWZ3); assay type: functional
T2 sequence (Q9NWZ3 whole entry): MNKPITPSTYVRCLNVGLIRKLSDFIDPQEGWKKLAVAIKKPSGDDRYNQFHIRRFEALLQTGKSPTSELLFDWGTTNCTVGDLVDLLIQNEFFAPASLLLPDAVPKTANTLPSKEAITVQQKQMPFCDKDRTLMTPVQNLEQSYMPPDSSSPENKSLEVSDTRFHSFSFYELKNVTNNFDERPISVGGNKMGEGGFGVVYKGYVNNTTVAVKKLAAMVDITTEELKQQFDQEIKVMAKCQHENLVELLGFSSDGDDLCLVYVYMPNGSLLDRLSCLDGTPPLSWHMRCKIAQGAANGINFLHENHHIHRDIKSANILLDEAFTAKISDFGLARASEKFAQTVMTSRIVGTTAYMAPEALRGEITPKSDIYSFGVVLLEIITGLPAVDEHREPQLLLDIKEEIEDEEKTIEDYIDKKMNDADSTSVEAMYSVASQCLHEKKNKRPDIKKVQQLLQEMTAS

[23] = target: Calcium/calmodulin-dependent protein kinase type 1 (Homo sapiens, UniProt Q14012); assay type: functional
[24] = target: Serine/threonine-protein kinase pim-2 (Homo sapiens, UniProt Q9P1W9); assay type: functional;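 note: value comes from a broad kinase panel profiling study in which PIM2 was one of the panel members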
[25] = target: STE20-like serine/threonine-protein kinase (Homo sapiens, UniProt Q9H2G2); assay type: functional
[26] = target: Fibroblast growth factor receptor 3 (Homo sapiens, UniProt P22607); assay type: functional
[27] = target: Serine/threonine-protein kinase PLK1 (Homo sapiens, UniProt P53350); assay type: functional;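 note: PLK1 measured as one member of a kinome-wide profiling panel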
[28] = target: Receptor tyrosine-protein kinase erbB-4 (Homo sapiens, UniProt Q15303); assay type: functional;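 note: ERBB4 member of a kinome-wide kinase profiling panel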
[29] = target: Mitogen-activated protein kinase 12 (Homo sapiens, UniProt P53778); assay type: functional;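 note: measured as one member of a kinome-wide kinase profiling panel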
[30] = target: Serine/threonine-protein kinase MRCK alpha (Homo sapiens, UniProt Q5VT25); assay type: functional
[31] = target: Serine/threonine-protein kinase BRSK1 (Homo sapiens, UniProt Q8TDC3); assay type: functional;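 note: measured within a kinome-wide kinase panel, with the target listed as KIAA1811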

Sequence of Protein kinase C iota type (P41743 whole entry): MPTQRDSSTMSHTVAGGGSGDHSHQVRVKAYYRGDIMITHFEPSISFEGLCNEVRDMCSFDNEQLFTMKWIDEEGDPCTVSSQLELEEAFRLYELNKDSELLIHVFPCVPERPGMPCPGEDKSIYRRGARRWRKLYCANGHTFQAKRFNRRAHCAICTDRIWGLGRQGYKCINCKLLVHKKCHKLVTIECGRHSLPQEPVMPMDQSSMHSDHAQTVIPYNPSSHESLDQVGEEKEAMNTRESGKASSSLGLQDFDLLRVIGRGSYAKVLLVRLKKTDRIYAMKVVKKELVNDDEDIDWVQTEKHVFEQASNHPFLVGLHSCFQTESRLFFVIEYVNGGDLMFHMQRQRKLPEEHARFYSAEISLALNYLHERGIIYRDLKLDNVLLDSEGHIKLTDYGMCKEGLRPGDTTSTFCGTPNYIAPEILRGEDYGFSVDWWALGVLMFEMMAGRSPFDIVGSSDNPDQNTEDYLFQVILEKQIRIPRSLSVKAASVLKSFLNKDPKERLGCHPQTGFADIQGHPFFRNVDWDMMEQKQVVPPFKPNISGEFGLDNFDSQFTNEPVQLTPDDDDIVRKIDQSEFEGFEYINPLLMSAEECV
Sequence of Mitogen-activated protein kinase 12 (P53778 whole entry): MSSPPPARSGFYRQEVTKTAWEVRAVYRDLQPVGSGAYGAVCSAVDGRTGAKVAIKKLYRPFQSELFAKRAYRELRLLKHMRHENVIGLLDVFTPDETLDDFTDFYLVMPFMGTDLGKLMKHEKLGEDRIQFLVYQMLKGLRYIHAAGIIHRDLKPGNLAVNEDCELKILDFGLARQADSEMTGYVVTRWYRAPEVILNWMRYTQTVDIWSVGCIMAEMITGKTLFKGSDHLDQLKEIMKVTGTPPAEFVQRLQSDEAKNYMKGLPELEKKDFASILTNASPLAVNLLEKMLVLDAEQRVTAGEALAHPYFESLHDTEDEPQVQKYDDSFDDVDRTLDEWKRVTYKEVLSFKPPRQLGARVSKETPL
Sequence of Serine/threonine-protein kinase Chk2 (O96017 whole entry): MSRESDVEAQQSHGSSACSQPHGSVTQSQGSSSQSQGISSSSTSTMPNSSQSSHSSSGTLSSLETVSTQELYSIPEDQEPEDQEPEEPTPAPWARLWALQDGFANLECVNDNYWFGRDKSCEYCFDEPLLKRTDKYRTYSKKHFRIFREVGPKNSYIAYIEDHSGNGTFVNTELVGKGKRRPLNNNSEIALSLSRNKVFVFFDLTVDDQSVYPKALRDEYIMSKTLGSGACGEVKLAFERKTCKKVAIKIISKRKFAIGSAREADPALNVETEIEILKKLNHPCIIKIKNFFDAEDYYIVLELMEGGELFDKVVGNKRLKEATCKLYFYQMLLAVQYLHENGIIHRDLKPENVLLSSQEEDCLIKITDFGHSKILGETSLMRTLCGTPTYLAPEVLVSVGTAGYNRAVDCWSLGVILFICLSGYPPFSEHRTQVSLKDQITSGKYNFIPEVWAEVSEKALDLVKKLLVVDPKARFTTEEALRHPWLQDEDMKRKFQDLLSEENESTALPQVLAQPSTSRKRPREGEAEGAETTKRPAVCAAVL
Sequence of Mitogen-activated protein kinase kinase kinase 20 (Q9NYL2 whole entry): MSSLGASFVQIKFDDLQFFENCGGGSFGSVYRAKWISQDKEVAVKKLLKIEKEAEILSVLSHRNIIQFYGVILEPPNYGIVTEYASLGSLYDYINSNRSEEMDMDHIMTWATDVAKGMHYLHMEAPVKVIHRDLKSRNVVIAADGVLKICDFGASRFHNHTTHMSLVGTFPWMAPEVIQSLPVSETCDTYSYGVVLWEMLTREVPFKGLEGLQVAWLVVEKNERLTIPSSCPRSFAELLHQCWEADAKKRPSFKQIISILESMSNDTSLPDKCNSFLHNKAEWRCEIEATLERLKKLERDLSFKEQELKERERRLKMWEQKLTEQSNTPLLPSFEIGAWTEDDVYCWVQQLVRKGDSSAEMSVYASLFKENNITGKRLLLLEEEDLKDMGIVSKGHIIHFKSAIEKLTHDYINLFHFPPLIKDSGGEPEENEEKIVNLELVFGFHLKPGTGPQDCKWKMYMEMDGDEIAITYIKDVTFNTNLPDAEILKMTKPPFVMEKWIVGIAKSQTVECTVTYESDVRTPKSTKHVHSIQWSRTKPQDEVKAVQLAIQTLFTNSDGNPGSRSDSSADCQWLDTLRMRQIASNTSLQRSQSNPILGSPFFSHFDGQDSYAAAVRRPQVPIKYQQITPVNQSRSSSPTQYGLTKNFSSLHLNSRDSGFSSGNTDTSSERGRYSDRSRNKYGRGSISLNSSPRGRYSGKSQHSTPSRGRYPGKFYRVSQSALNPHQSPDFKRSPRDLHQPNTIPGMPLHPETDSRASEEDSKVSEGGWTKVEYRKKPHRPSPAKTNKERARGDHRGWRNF
Sequence of ATP-dependent molecular chaperone HSP82 (C4YTQ8 whole entry): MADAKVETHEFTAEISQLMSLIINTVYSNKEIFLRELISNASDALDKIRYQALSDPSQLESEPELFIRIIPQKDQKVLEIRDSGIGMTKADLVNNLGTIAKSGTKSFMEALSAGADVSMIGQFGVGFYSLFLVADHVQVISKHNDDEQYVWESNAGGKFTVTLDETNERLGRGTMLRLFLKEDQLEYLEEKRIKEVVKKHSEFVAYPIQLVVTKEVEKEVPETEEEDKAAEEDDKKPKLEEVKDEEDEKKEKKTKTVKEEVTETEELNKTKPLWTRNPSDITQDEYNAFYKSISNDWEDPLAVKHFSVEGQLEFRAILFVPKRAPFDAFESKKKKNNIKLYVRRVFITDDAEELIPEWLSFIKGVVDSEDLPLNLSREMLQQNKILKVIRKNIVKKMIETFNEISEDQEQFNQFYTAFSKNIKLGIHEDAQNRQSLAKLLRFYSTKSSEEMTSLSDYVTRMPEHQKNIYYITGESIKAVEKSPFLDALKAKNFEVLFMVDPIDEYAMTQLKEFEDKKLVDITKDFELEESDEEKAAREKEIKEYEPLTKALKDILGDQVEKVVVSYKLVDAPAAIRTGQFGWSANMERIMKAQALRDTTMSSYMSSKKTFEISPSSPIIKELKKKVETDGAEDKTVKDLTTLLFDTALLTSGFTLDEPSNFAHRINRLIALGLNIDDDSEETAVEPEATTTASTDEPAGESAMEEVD
Sequence of Receptor tyrosine-protein kinase erbB-4 (Q15303 whole entry): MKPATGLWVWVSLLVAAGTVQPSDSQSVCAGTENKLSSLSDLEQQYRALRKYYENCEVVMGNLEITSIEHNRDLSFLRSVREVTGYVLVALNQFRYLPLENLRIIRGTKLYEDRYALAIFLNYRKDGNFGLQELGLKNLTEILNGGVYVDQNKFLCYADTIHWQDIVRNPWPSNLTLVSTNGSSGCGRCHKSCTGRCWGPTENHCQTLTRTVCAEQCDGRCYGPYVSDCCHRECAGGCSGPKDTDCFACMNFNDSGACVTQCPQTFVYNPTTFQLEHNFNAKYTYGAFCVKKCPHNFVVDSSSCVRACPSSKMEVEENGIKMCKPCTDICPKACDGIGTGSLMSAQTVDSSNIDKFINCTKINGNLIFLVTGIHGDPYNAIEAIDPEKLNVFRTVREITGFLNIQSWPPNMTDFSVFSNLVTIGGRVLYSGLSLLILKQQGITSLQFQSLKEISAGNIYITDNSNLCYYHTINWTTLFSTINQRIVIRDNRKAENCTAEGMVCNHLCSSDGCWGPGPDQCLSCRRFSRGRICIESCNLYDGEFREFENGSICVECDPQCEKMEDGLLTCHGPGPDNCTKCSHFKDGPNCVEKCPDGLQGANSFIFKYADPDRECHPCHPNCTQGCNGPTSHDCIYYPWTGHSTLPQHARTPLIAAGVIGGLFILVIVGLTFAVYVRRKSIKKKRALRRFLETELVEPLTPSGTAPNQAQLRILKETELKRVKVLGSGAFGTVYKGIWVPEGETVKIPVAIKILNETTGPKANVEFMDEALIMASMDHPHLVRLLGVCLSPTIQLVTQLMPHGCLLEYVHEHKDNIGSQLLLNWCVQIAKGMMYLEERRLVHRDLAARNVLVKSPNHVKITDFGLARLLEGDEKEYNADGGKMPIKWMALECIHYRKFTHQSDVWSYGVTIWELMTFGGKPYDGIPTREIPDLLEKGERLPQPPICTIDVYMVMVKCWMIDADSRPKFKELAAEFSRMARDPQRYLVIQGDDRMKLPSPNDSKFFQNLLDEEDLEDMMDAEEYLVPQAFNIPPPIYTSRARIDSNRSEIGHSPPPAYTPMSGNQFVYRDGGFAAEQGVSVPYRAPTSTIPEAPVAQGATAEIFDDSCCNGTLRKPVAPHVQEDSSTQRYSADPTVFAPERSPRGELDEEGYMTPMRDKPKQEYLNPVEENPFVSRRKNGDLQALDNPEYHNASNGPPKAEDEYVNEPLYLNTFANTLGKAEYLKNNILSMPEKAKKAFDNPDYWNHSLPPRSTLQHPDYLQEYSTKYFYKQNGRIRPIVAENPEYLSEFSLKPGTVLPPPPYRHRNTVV
Sequence of Serine/threonine-protein phosphatase (B9W6M3 whole entry): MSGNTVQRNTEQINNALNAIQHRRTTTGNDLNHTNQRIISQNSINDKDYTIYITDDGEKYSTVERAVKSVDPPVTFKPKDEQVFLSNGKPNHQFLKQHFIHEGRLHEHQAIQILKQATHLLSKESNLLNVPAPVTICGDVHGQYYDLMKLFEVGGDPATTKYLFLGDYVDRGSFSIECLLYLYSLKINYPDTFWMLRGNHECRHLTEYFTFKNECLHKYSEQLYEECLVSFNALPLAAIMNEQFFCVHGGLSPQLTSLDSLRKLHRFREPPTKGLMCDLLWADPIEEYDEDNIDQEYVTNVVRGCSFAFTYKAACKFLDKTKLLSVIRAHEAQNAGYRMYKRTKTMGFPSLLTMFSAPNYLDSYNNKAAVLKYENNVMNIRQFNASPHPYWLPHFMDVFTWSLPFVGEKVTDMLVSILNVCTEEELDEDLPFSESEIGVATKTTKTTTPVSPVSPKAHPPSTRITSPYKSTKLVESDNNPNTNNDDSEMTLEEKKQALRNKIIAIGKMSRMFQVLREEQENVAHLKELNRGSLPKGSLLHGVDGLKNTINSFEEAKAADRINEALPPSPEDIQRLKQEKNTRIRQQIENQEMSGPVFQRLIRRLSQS

For `Cc1cc(NC(c2ccc(Cl)cc2)c2ccc3cccnc3c2O)no1` (stereo unspecified), the EC50 [1] was > 150000 nM (not active), the EC50 [2] was > 350000 nM (not active) and the EC50 [3] was > 180000 nM (inactive). The EC50 [4] was 20700 nM (active).
In the case of `CS(=O)(=O)N(Cc1ccc2[nH]c(=O)c3cccn3c2c1)C1CC1`, the Ki [5] is reported as 79.4 nM (active), the Ki [6] is reported as 2000 nM (active) and the Ki [7] is reported as 251 nM (active). The Ki [8] was 251 nM (active), the Ki [9] was > 1580 nM (inactive) and the Ki [10] was > 7940 nM (inactive). The Ki [11] was 200 nM (active), the Ki [12] was 15.8 nM (active) and the Ki [13] was 3160 nM (active). For the same molecule, the Ki [14] was > 5010 nM (inactive), the Ki [15] was 251 nM (active) and the Ki [16] was 251 nM (active). For the same molecule, the Ki [17] was > 2000 nM (inactive), the Ki [18] was 794 nM (active) and the Ki [19] was > 6310 nM (inactive). For the same molecule, the Ki [20] was 251 nM (active), the Ki [21] was > 5010 nM (inactive) and the Ki [22] was > 10000 nM (inactive). For the same molecule, the Ki [23] was > 5010 nM (inactive), the Ki [24] was > 1580 nM (inactive) and the Ki [25] was > 10000 nM (inactive). The Ki [26] was > 2000 nM (inactive), the Ki [27] was 10 nM (active) and the Ki [28] was > 3980 nM (inactive). For the same molecule, the Ki [29] was 316 nM (active), the Ki [30] was 2000 nM (active) and the Ki [31] was 200 nM (active).

Reference: ChEMBL document CHEMBL1201862, “PubChem BioAssay data set” (2004)
